Experimental data reported in ChEMBL document CHEMBL1201862, “PubChem BioAssay data set” (2004).
Active and inactive are the calls of the source.

Tests used:
[1] = activation of miR-122 Renilla sensor silencing – cell-based, Huh7 psiCHECK-miR122, Renilla luciferase, cherry-picked, dose response (AID 651956); assay type: functional;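 further: huh7 hepatoma cells stably carrying a psiCHECK-2 miR-122 sensor plasmid; renilla luciferase signal reporting endogenous miR-122 activity after 48 h compound exposure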
[2] = target: T1, DNA repair and recombination protein RAD54-like (Homo sapiens, UniProt Q92698); assay: RAD54 Holliday junction migration blockers – biochemical, fluorescence, cherry-picked samples, dose series, confirmation (AID 651657); assay type: functional
T1 sequence (Q92698 whole entry): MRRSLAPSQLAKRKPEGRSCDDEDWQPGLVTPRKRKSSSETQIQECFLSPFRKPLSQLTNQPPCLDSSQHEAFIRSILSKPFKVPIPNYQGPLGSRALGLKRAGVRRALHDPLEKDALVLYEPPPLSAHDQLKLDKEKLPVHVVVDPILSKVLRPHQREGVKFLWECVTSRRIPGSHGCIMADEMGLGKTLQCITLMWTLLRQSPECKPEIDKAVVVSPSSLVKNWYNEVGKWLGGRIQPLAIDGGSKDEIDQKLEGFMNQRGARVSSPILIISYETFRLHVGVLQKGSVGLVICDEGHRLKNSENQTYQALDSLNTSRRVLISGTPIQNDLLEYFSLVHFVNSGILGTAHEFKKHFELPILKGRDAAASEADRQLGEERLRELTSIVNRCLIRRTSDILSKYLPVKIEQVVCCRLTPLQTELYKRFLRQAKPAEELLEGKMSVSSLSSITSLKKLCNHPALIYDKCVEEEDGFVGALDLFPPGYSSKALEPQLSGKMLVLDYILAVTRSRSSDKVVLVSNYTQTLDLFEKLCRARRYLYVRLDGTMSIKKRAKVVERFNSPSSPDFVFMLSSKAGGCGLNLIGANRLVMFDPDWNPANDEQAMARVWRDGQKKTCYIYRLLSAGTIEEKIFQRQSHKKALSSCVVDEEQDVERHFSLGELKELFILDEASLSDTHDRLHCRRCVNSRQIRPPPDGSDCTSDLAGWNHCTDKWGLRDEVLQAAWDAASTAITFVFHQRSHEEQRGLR

[3] = cells; assay type: functional
[4] = cytotoxicity toward MDA-MB-231 breast cancer cells – cell-based, CellTiter-Glo luminescence, cherry-pick, cytotoxicity control for RAD54 inhibitor project, dose response (AID 651692); assay type: functional
[5] = target: T2, DNA repair protein RAD52 homolog (Homo sapiens, UniProt P43351); assay type: functional, biochemical
T2 sequence (P43351 whole entry): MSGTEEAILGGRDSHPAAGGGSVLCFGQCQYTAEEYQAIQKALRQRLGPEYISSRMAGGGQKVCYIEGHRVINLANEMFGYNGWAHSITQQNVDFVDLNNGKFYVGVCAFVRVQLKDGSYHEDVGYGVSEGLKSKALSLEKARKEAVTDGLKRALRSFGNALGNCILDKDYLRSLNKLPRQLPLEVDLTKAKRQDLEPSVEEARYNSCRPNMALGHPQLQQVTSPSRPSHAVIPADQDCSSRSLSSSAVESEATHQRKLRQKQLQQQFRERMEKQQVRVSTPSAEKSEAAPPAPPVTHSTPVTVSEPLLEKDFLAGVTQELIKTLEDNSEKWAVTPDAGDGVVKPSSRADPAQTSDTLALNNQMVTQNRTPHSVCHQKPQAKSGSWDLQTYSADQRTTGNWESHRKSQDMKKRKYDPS

[6] = viability loss in HeLa cells – cytotoxicity control for MgcRacGAP inhibitor project, dose response (AID 624300); assay type: functional
[7] = target: T3, Rac GTPase-activating protein 1 (Homo sapiens, UniProt Q9H0H5); assay: blockers of MgcRacGAP-driven Rac1 GTP hydrolysis – biochemical, ADP Hunter fluorescence, primary and confirmatory, confirmation (AID 624330); assay type: functional
T3 sequence (Q9H0H5 whole entry): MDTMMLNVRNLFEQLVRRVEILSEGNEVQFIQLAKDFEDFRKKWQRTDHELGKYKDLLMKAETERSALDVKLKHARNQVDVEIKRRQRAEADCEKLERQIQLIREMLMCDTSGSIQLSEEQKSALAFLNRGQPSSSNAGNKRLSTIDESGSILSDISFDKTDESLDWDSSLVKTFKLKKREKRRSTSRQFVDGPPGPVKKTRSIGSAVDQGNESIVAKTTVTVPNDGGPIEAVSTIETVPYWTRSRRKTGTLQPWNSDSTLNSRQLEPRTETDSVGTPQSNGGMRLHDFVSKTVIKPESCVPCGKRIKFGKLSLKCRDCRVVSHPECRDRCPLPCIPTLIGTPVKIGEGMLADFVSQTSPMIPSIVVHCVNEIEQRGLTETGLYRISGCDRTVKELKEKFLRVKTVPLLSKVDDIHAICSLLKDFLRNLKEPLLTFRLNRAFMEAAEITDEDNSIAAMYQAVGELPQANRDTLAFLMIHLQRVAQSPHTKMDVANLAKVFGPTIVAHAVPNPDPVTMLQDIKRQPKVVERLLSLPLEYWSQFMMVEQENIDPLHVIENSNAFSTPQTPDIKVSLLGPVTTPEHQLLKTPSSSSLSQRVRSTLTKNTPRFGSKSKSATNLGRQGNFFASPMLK

[8] = Trypanosoma cruzi growth suppression in host cells – NIH3T3 host cells, beta-gal luminescence, confirmation (AID 2044); assay type: functional, cell-based;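 further: intracellular parasites grown in NIH/3T3 mouse fibroblasts as host cells; luminescent beta-galactosidase reporter signal from transgenic T. cruzi replicating inside host cells; inhibitors lower the luminescence signal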
[9] = target: T4, Short transient receptor potential channel 4 (Mus musculus, UniProt Q9QUQ5); assay: calcium entry via TRPC4 opening agents – cell-based, HEK293 TRPC4/mu-opioid, Fluo-4 calcium, dose response (AID 434937); assay type: functional
T4 sequence (Q9QUQ5 whole entry): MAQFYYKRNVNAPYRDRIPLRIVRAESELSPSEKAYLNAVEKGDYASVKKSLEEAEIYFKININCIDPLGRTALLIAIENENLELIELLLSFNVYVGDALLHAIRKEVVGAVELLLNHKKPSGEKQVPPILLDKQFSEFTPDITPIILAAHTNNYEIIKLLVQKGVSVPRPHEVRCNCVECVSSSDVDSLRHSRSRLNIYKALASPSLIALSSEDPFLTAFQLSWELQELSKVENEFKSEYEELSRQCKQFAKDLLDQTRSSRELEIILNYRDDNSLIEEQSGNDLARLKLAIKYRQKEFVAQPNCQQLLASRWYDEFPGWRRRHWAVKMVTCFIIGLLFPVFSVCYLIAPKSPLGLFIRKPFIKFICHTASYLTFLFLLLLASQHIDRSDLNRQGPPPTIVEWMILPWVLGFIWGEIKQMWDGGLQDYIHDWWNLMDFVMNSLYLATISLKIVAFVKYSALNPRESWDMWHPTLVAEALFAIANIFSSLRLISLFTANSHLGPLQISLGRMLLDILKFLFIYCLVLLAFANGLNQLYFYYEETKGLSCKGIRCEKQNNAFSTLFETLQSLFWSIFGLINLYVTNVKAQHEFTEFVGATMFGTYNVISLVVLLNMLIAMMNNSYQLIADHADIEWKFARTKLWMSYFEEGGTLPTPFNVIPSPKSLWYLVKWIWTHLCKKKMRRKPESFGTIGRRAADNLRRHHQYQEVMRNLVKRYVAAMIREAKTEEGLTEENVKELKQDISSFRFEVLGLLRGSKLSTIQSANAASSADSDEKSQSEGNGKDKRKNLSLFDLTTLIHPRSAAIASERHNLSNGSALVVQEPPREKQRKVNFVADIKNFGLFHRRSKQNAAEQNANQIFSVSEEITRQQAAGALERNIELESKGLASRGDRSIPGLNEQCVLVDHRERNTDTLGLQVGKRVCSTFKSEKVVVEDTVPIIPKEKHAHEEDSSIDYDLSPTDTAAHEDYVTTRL

[10] = NIH3T3 cell viability loss – ATP luminescence, mouse fibroblasts, counter-screen, dose response (AID 2010); assay type: functional, cell-based;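 further: cells exposed to compound for about 90 hours before reading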
[11] = Vero E6 cell cytotoxicity, dose response, cytotoxicity control for non-replicating M. tuberculosis project, secondary assay (AID 492998); assay type: functional, VeroE6; settings: Vero C1008
[12] = THP-1 cell cytotoxicity, dose response, cytotoxicity control for non-replicating M. tuberculosis project (AID 489025); assay type: functional
[13] = HepG2 cell cytotoxicity, dose response, cytotoxicity control for non-replicating M. tuberculosis project (AID 489018); assay type: functional; settings: Mycobacterium tuberculosis
[14] = target: T5, Sentrin-specific protease 8 (Homo sapiens, UniProt Q96LD8); assay type: functional
T5 sequence (Q96LD8 whole entry): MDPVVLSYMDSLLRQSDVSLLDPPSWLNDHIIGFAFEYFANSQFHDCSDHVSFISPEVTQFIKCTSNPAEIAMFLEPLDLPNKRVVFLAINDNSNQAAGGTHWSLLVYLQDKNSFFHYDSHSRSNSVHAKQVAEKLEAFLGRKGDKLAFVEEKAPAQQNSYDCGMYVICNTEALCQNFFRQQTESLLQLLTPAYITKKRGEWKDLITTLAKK

[15] = target: T5, Sentrin-specific protease 8; assay type: functional; remark: listed apart in the source

COC(=O)C[C@H]1CC[C@H]2[C@@H](COc3ccc(NC(=O)Nc4c(C)noc4C)cc3C(=O)N2C)O1
active: AC50 [1] 40.4 µM

C[C@H](CO)N1C[C@H](C)[C@@H](CN(C)Cc2ccc(-c3ccccc3)cc2)Oc2ncc(C#CCN(C)C)cc2C1=O
active: AC50 [1] 20.3 µM

CCCCN(CC)CCNC(=O)c1cc2c(-c3ccc(Cl)cc3)nn(C)c2s1
active: AC50 [2] 21.7 µM | IC50 [3] 9.15 µM | AC50 [4] 23.7 µM | AC50 [5] 6.76 µM | CC50 [6] 55.5 µM | IC50 [7] 229 µM | EC50 [8] 0.809 µM | EC50 [9] 0.211 µM | EC50 [10] 8.44 µM | CC50 [11] 12.9 µM | CC50 [12] 13.7 µM | CC50 [13] 5.62 µM

COC(=O)CCCC1=CC2=CC(=O)C(C)(OC(=O)c3cccs3)C(=O)C2=CN1C1CC1 (stereo unspecified)
active: IC50 [14] 7.17 µM | IC50 [15] 17.3 µM
